According to ChEMBL document CHEMBL6134826, “Cross-subclass metallo-β-lactamase inhibitors: From structural and catalytic commonalities guiding design” (Eur J Med Chem, 2025):

How the values were obtained:
[1] = Inhibition of L1 (unknown origin); parameters: species or system Bacteria
[2] = Inhibition of Sfh-1 (unknown origin); parameters: species or system Bacteria
[3] = target: T1, Metallo-beta-lactamase type 2 (Bacteria, UniProt C7C422); test: Binding affinity to NDM-1 (unknown origin) assessed as inhibition constant
[4] = Inhibition of IMP-1 (unknown origin); parameters: species or system Bacteria
[5] = Inhibition of CphA (unknown origin); parameters: species or system Bacteria
[6] = Binding affinity to VIM-2 (unknown origin) assessed as inhibition constant; parameters: species or system Bacteria
[7] = Binding affinity to L1 (unknown origin) assessed as inhibition constant; parameters: species or system Bacteria
[8] = target: T1, Metallo-beta-lactamase type 2; test: Inhibition of NDM-1 (unknown origin) using nitrocefin as substrate by colorimetric assay
[9] = Inhibition of ImiS (unknown origin); parameters: species or system Bacteria
[10] = Inhibition of BcII (unknown origin); parameters: species or system Bacteria
[11] = target: T1, Metallo-beta-lactamase type 2; test: Inhibition of NDM-1 (unknown origin)
[12] = Binding affinity to IMP-1 (unknown origin) assessed as inhibition constant; parameters: species or system Bacteria
[13] = Binding affinity to BcII (unknown origin) assessed as inhibition constant; parameters: species or system Bacteria
[14] = tested on: Bacteria; test: Inhibition of L1 (unknown origin) at 100 uM relative to control
[15] = tested on: Bacteria; test: Inhibition of IMP-1 (unknown origin) at 100 uM relative to control
[16] = Inhibition of recombinant VIM-2 (unknown origin); parameters: species or system Bacteria
[17] = target: Metallo-beta-lactamase type 2 (Bacteria) (UniProt C7C422); test: Inhibition of NDM-1 (unknown origin) at 100 uM relative to control
[18] = Binding affinity to Sfh-1 (unknown origin) assessed as inhibition constant; parameters: species or system Bacteria
[19] = target: T1, Metallo-beta-lactamase type 2; test: Inhibition of NDM-1 (unknown origin)using fluorescent cephalosporin as substrate preincubated for 10 mins followed by substrate addition by fluorescence based assay

T1 sequence (C7C422 whole entry): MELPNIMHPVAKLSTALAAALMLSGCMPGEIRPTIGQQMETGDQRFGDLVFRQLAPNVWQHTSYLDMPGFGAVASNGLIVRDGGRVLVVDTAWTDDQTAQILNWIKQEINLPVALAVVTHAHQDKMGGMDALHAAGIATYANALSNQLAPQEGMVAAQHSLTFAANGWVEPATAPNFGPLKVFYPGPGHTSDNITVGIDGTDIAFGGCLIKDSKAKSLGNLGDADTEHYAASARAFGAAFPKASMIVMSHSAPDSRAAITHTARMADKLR
Chain of Metallo-beta-lactamase type 2 (Bacteria) (C7C422 whole entry): as above

**Q.** With CCOC(=O)[C@]1(CS)N[C@H](C(=O)O)CS1 as the compound, how does the IC50 [1] read?
**A.** Its IC50 is 20000 nM.

**Q.** What about the IC50 [2] of the same compound?
**A.** Its IC50 is 1300 nM.

**Q.** What about the Ki [3] of the same compound?
**A.** Its Ki is 440 nM.

**Q.** Which results are given for O=C(N[C@@H](C(=O)O)c1ccc(Cn2cnnn2)s1)[C@@H](S)CCc1ccccc1?
**A.** IC50 [1]: 500 nM; IC50 [4]: 90 nM

**Q.** Which results are given for O=C(O)c1cccc2c1OB(O)C(SCc1ccccc1)C2 (centres undefined)?
**A.** IC50 [5]: 501 nM; IC50 [1]: 5010 nM

**Q.** Which Ki [6] does the source give for CC1(C)S[C@H]2CS[C@H](CS)N2[C@@H]1C(=O)O here?
**A.** The Ki was 6000 nM.

**Q.** And the Ki [7]?
**A.** The Ki was 11000 nM.

**Q.** And the IC50 [2]?
**A.** Its IC50 is 360 nM.

**Q.** With CCN(CC)c1ccc2cc(C(=O)NCCC[Se]C#N)c(=O)oc2c1 as the compound, how does the IC50 [4] read?
**A.** Its IC50 is 120 nM.

**Q.** And the IC50 [8]?
**A.** Its IC50 is 81 nM.

**Q.** What about the IC50 [9] of the same compound?
**A.** The IC50 was 560 nM.

**Q.** Which results are given for CC1(C)[C@H](C(=O)O)N2C(=O)[C@@H](CS)[C@H]2S1(=O)=O?
**A.** IC50 [1]: 100 nM; IC50 [10]: 1400 nM

**Q.** For O=C(O)[C@@H]1CS[C@H]2CS[C@H](CS)N21, which Ki [6] is on record?
**A.** The Ki was 2900 nM.

**Q.** And the Ki [7]?
**A.** Its Ki is 12000 nM.

**Q.** And the IC50 [2]?
**A.** Its IC50 is 260 nM.

**Q.** For CC1(C)[C@H](C(=O)O)N2C(=O)[C@H](CS)[C@H]2S1(=O)=O, which IC50 [1] is on record?
**A.** Its IC50 is 300 nM.

**Q.** And the IC50 [10]?
**A.** Its IC50 is 12000 nM.

**Q.** Which results are given for O=C(O)c1cccc2c1OB(O)[C@@H](NC(=O)C1CCCCC1)C2?
**A.** IC50 [11]: 2040 nM; IC50 [5]: 4420 nM

**Q.** Which results are given for SCC1SCC2Nc3ccccc3N21 (centres undefined)?
**A.** IC50 [1]: 620 nM; IC50 [2]: 1400 nM; Ki [3]: 77000 nM

**Q.** With C[C@H](NC(=O)CCS)C(=O)O as the compound, how does the Ki [12] read?
**A.** Its Ki is 68000 nM.

**Q.** And the Ki [13]?
**A.** The Ki was 5600 nM.

**Q.** And the Ki [7]?
**A.** Its Ki is 6500 nM.

**Q.** Which IC50 [4] does the source give for CCN(CC)c1ccc2c(-c3ccccc3C(=O)OCCn3[se]c4ccccc4c3=O)c3ccc(N(CC)CC)cc3[o+]c2c1 here?
**A.** Its IC50 is 460 nM.

**Q.** And the IC50 [8]?
**A.** The IC50 was 16 nM.

**Q.** What about the IC50 [9] of the same compound?
**A.** The IC50 was 8620 nM.

**Q.** Which inhibition [14] does the source give for CC(=O)OC1C2CCC(C(=O)O)N2P1(=O)O (centres undefined) here?
**A.** Its inhibition is 70%.

**Q.** What about the inhibition [15] of the same compound?
**A.** The inhibition was 70%.

**Q.** Which IC50 [16] does the source give for NCCN[C@H]1CC[C@H](CC(=O)N[C@H]2Cc3cccc(C(=O)O)c3OB2O)CC1 here?
**A.** Its IC50 is 5 nM.

**Q.** And the IC50 [5]?
**A.** Its IC50 is 2510 nM.

**Q.** What about the IC50 [1] of the same compound?
**A.** The IC50 was > 10000 nM.

**Q.** Which results are given for O=C(CCn1[se]c2ccccc2c1=O)ON1C(=O)CCC1=O?
**A.** IC50 [4]: 530 nM; IC50 [8]: 45 nM; IC50 [9]: 7650 nM

**Q.** With CCOC(=O)[C@]1(CS)N[C@H](C(=O)O)C(C)(C)S1 as the compound, how does the IC50 [1] read?
**A.** The IC50 was 28000 nM.

**Q.** What about the IC50 [2] of the same compound?
**A.** Its IC50 is 100000 nM.

**Q.** And the Ki [3]?
**A.** The Ki was 8000 nM.

**Q.** Which Ki [12] does the source give for CNCc1ccc([C@@H]2C[C@@H](SC3=C(C(=O)O)N4C(=O)[C@H]([C@@H](C)O)[C@H]4[C@H]3C)CN2)cc1 here?
**A.** The Ki was 180 nM.

**Q.** Which results are given for O=C(O)C(=O)CBr [BROMOPYRUVATE]?
**A.** IC50 [8]: 2570 nM; inhibition [17]: 90.9%; inhibition [14]: 33.3%

**Q.** Which results are given for CC(C)c1cccc2c(-c3cc(Cl)cc(Cl)c3)c(C(=O)O)[nH]c12?
**A.** IC50 [5]: 630 nM; IC50 [1]: 501 nM

**Q.** Which results are given for C[C@]1(Cn2ccnn2)[C@H](C(=O)O)N2C(=O)C[C@H]2S1(=O)=O [TAZOBACTAM]?
**A.** Ki [6]: 128000 nM; Ki [18]: 62200 nM

**Q.** Which IC50 [4] does the source give for CCN(CC)C(=S)SSC(=S)N(CC)CC [DISULFIRAM] here?
**A.** The IC50 was 2900 nM.

**Q.** What about the IC50 [8] of the same compound?
**A.** The IC50 was 130 nM.

**Q.** What about the IC50 [9] of the same compound?
**A.** Its IC50 is 3600 nM.

**Q.** Which results are given for O=C(CCn1[se]c2ccccc2c1=O)Oc1ccc2ccc(=O)oc2c1?
**A.** IC50 [4]: 970 nM; IC50 [8]: 25 nM; IC50 [9]: 12500 nM

**Q.** Which results are given for CC(C)c1cccc2c(-c3ccc(Cn4cncn4)cc3)c(C(=O)O)[nH]c12?
**A.** IC50 [5]: 398 nM; IC50 [1]: 5010 nM; IC50 [19]: 1.58 nM

**Q.** What does the source list for CC(C)c1cccc2c(-c3ccc(CS(C)(=O)=O)c(Cl)c3)c(C(=O)O)[nH]c12?
**A.** IC50 [5]: 1260 nM; IC50 [1]: 50.1 nM; IC50 [19]: 1.26 nM

**Q.** What does the source list for O=c1c2ccccc2[se]n1-c1ccccc1 [EBSELEN]?
**A.** IC50 [4]: 1590 nM; IC50 [8]: 72 nM
